Data reported in patent US10987377B2, “Use of inhaled gaseous nitric oxide as a mucolytic agent or expectorant” (Advanced Inhalation Therapies (AIT), Ltd., priority 2004, dated 2021).
“And” between values parts separate entries of the source, which are not always exact repeats. Identical values can stand only once.

Experiments:
healthy bovine = assay: Preliminary experiments with healthy bovine, prevention of mucus accumulation; format: in vivo; details: inhaled
Description: Additionally, inhaled nitric oxide containing gas may act as a preventative measure in the accumulation of mucus in the airways. […] Such a risk may be associated with recent infection and/or contact with other infected mammals. […] The delivery of inhaled nitric oxide containing gas may be administered to these risk mammals in order to prevent mucus accumulation in the airway. Effective therapeutic amounts may also refer to an amount sufficient to break down the viscoelastic mucus and increase mucociliary transport in the mammal's airway and to increase MMC in the mammal. Therefore, treating mucus accumulation in the airways of a mammal comprises reducing mucus accumulation, preventing mucus accumulation, reducing mucociliary dyskinesia, and/or preventing mucociliary dyskinesia.

[1] = test system: Standardbred horses with excessive mucus accumulation; assay: Example 2: inhalant Nitric Oxide gas in Standardbred horses with excessive mucus accumulation, post race endoscopic mucus score; format: in vivo, equine; parameters: key to Decrease in Mucus Score: Dixon score: 0 = no mucus, 1-5 = increasing mucus; pre minus post
Description: Twenty-seven Standardbred horses were referred to this study with a history of poor performance and with evidence of excessive mucus accumulation as surveyed by endoscopic exam. This was a single site population study and the subjects served as their own control.
Horses were examined pretreatment by videoendocscopy on a minimum of two consecutive occasions post race, one week or longer between scopings, to document the degree and persistence of mucus residence. The endoscope was passed to the level of the bifurcation of the trachea (carina) with images logged on a video recorder. The Dixon et al. scoring system was used to indicate the presence or absence of mucus, as well as its severity, if present. Zero indicates absence of mucus, and 1 to 5 indicating increasing amounts of mucus observed endoscopically in the trachea. Scoring was done by the veterinarian conducting the examination, then later by another “blinded” individual using the recorded examination.
Treatment via a metered delivery device was provided that included a source of nitric oxide from a pressurized gas cylinder and a delivery interface with the subject's nare. The Nitric Oxide delivery device is enabled by a microprocessor-based computer (Pulmonox Medical Inc, Tofield, Alberta, Canada) wherein a proportionate flow rate of Nitric Oxide gas is delivered based on the horse's tidal volume/minute ventilation with a resulting airway/pulmonary concentration of 160-200 ppm.
Upon enrollment in the study a candidate for the treatment intervention was administered 100 breathes of NO gas as previously described for a minimum of three days. A follow up endoscopic exam on the next available immediate post race was performed and a mucus score assigned. Post race endoscopic exams were continued for several events as a measurable outcome. Depending on the results (i.e. no change or a graded increase in mucus scores) multiple treatment cycles were continued and the results recorded via post race endoscopic exam over the next of several weeks.

bovine = assay: Preliminary experiments with bovine, mucus hydrolyzed and excreted from the nares; format: in vivo
Description: Thus, the Applicants believe that inhaled gaseous NO as an effective treatment to excess mucus accumulation in the airways of mammals.

[2] = test system: Thoroughbred racehorses with excessive mucus production; assay: Example 1: inhaled gaseous NO in Thoroughbred racehorses with excessive mucus, endoscopic mucus scoring; format: in vivo, equine; parameters: key to Mucus status: NG = No change in status; details: for Side effects: equine study, inhaled administration
Description: Six (6) Thoroughbred racehorses at a major racing jurisdiction were quarantined for two weeks, and each horse had evidence of excessive mucus production as surveyed by clinical presentation and by endoscopic exam. The horses were isolated from each other and were being medicated daily in series with several broad-spectrum antimicrobials routinely employed for respiratory infections in Equids. The results before the administration with gaseous NO had been unremarkable. […] All six horses were included in the study using gaseous NO.
The horses were brought individually to the veterinary hospital barn for further evaluation over the course of five days. An fiberoptic endoscope was passed to the level of the bifurcation of the trachea (carina-airway) with images recorded on videotape. A scoring system was used to indicate the presence or absence of mucus, as well as its severity, if present. This scoring system has been described by Dixon et. al., “Equine Pulmonary Disease: Ancillary Diagnostic Findings,” Equine Vet. Journal 27, 428-435, 1995, herein incorporated by reference in its entirety. A score of zero indicates the absence of mucus, while a score of 1 to 5 indicates increasing amounts of mucus observed endoscopically in the trachea. The attending Veterinarian conducting the examination did the scoring. All of the six horses scored 4 or higher before the initiation of the treatments.
Treatment intervention of inhaled gaseous Nitric Oxide was administered to all six horses during a five-day period. Five of the horses (#2-#6) received 100 breaths of 10,000 ppm resulting in, based on pulmonary mechanics, a lung concentration of approximately 160 ppm. Horse #1 received 100 breaths of 5000 ppm resulting in 80 ppm on Day #1 and a second administration of 100 breaths of 10,000 ppm on Day #5. Horse #5 received 100 breaths of 10,000 ppm on Day #3 and a second administration of 100 breaths of 10,000 ppm on Day #4.
An outline of the treatment results is provided below in Table No. 1 (with scores when available). […] On a day where a measurement and a treatment occur, such as Day #4 for Horse #5, the measurement was taken before the administration of the second dosage.

SMILES: [N]=O [gNO, Nitric Oxide]
- Prevention of mucus accumulation (healthy bovine): results in the prevention of mucus accumulation
- Response to additional treatment cycles ([1]; horses with recurrence to scores of 2 or more in the weeks following the first treatment): repeatable marked reduction in mucus scores following treatment
- Post-Mucus Score (after administering gNO) ([1]; individual horses 1-27, 100 breaths for a minimum of three days, airway concentration 160-200 ppm, post race endoscopy, Dixon scale 0-5): 2 (6×) and 0 (7×) and 3 (2×) and 4 (2×) and 1 (4×) and 1.5 (2×) and 2.5 (4×)
- Decrease in Mucus Score ([1]; individual horses 1-27, pre-score minus post-score, 100 breaths for a minimum of three days, 160-200 ppm): .5 (7×) and 1 (5×) and 2.5 (2×) and 3 (3×) and 3.5 (2×) and 2 (5×) and 1.5 and 0
- Number of horses with decrease in score by at least 0.5 ([1]; of twenty-seven, Dixon et al. scale): Twenty five
- Number of horses with score reduction of at least 1 ([1]; of twenty-seven, after a single treatment cycle): Eighteen
- Number of subjects with decrease in mucus score from 2 to 3.5 ([1]; of twenty-seven, single or multiple treatments, transient reduction): Twelve
- Improvement in mucus scores post treatment ([1]; twenty-seven horses enrolled): all but two showed significant improvement in their mucus scores
- Time until mucus is hydrolyzed and excreted from the nares (bovine): 10 to 30 min
- Mucus score (endoscopic, 0-5) ([2]; Horse #1, Day #2, Tx 100 breaths at 5000 ppm on Day #1): Clear (0)
- Return of the previous amount of mucus (amount before administration of gNO), not scored ([2]; Horse #1, Day #3, Tx 100 breaths at 5000 ppm on Day #1): 25% rtn.
- Mucus status ([2]; Horse #1, Day #4, Tx 100 breaths at 5000 ppm on Day #1): NG
- Mucus status ([2]; Horse #1, Day #5, before second Tx (10,000 ppm), Tx 5000 ppm on Day #1): NG, Tx 10k
- Mucus score (endoscopic, 0-5) ([2]; Horse #1, Day #6, Tx 5000 ppm Day #1 and Tx 100 breaths at 10,000 ppm Day #5): Trace (1)
- Mucus score (endoscopic, 0-5) ([2]; Horse #2, Day #2, Tx 100 breaths at 10,000 ppm on Day #1): Clear (0)
- Return of the previous amount of mucus (amount before administration of gNO), not scored ([2]; Horse #2, Day #3, Tx 100 breaths at 10,000 ppm on Day #1): 25% rtn.
- Mucus status ([2]; Horse #2, Day #4, Tx 100 breaths at 10,000 ppm on Day #1): NG
- Mucus status ([2]; Horse #2, Day #5, Tx 100 breaths at 10,000 ppm on Day #1): NG
- Mucus score (endoscopic, 0-5) ([2]; Horse #3, Day #3, Tx 100 breaths at 10,000 ppm on Day #2): Clear (0)
- Mucus status ([2]; Horse #3, Day #4, Tx 100 breaths at 10,000 ppm on Day #2): NG
- Mucus score (endoscopic, 0-5) ([2]; Horse #3, Day #5, Tx 100 breaths at 10,000 ppm on Day #2): Trace (2)
- Mucus score (endoscopic, 0-5) ([2]; Horse #4, Day #4, Tx 100 breaths at 10,000 ppm on Day #3): Clear (0)
- Return of the previous amount of mucus (amount before administration of gNO), not scored ([2]; Horse #4, Day #5, Tx 100 breaths at 10,000 ppm on Day #3): 25% rtn.
- Mucus score (endoscopic, 0-5) ([2]; Horse #5, Day #4, before second dosage, Tx 100 breaths at 10,000 ppm on Day #3): Clear (0),
- Mucus score (endoscopic, 0-5) ([2]; Horse #5, Day #5, Tx 100 breaths at 10,000 ppm on Day #3 and Day #4): Trace (2)
- Mucus score (endoscopic, 0-5) ([2]; Horse #5, Day #6, Tx 100 breaths at 10,000 ppm on Day #3 and Day #4): Trace (1)
- Mucus score (endoscopic, 0-5) ([2]; Horse #6, Day #6, Tx 100 breaths at 10,000 ppm on Day #5): Trace (2)
- Reduction in mucus from Day #1 ([2]; Horses #2 and #4 (25% of the mucus returned, not scored)): 75%
- Side effects [2]: did not result in any irritation, inflammation or abnormal side effects
- Side effects ([2]; listed as inhaled NO): no untoward side effects were observed
- Observation immediately following administration ([2]; horses, inhaled): non-viscous liquids started to flow out of the nares of the horses
- Time until non-viscous liquids start to flow out of the nares ([2]; six equine with excessive mucus accumulation, after inhalation): 10 to 30 min
- Reduction of mucus ([2]; six equine, all subjects): reductions of mucus to trace levels in all subjects
